Test results published in patent publication US6858638B2, “Substituted indazoles, compositions containing them, method of production and use” (Aventis Pharma S.A., priority 2002, dated 2005).

Key:
Type in all cases: biochemical
[1] = target: T1, Aurora2 kinase (Homo sapiens, UniProt O14965); experiment: Aurora2 kinase radioactivity scintillation assay using nickel chelate (NuMA substrate); details: 10 μM; for inhibition at 10 µM: read-out: Aurora2 % inhib at 10 μM
T1 construct: A complete recombinant Aurora2 enzyme; His tag (N); made in house; host or cells: E. coli
T1 sequence (O14965 1-403): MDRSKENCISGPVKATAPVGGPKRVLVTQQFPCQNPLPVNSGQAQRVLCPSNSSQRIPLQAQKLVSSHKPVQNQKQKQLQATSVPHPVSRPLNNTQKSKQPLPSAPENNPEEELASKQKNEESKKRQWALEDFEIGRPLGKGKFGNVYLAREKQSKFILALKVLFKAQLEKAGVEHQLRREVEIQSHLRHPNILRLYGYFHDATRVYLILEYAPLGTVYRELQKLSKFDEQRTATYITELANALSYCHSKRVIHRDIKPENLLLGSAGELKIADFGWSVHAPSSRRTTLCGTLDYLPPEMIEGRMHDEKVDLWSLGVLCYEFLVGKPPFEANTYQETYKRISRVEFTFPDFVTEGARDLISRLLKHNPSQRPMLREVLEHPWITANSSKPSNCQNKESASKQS
In short: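 Read-out is 33P incorporation into His-NuMA (Q1687-H2101, 0.5 μM) captured on nickel chelate, after 30 min at 37 °C with 0.02 μM His-Aurora2 and 1 μM ATP. Expressed as percentage inhibition of uncompounded control activity, background subtracted.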

[2] = target: T2, human FAK (Homo sapiens, UniProt Q05397); experiment: FAK autophosphorylation inhibition, time resolved fluorescence (HTRF) assay; details: for inhibition at 10 µM: read-out: FAK % inhib at 10 μM
T2 construct: The complete cDNA of human FAK; made in house; host or cells: baculovirus expression system (vector pFastBac HTc)
In short: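 Autophosphorylation was detected by europium-cryptate anti-pTyr and XL665 anti-His energy transfer, percent inhibition from the 665/620 ratio relative to no-compound wells. Enzyme: His-FAK full length, 6.6 µg/ml, incubated 1 h at 37 °C, pH 7.2, 15 µM ATP.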

[3] = target: T3, human KDR enzyme (Homo sapiens, UniProt P35968); experiment: KDR substrate (PLCγ) phosphorylation, scintillation assay; details: 10 μM; read-out: KDR % inhib at 10 μM
T3 construct: The cytoplasmic domain of the human KDR enzyme; GST; made in house; host or cells: SF21 insect cells (baculovirus)
In short: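 Values are percent inhibition relative to the compound-free control, read by scintillation counting of 33P incorporation after EDTA stop. Baculovirus/SF21-expressed GST-KDR cytoplasmic domain (100 ng) acted for 1 h at 37 °C in pH 7.2 MOPS kinase buffer. The substrate was GST-PLCγ SH2-SH3 (2 μg), added with γ33P-ATP and 2 μM unlabeled ATP.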

[4] = 10 μM (values without asterisk)

T2 sequence (Q05397 whole entry): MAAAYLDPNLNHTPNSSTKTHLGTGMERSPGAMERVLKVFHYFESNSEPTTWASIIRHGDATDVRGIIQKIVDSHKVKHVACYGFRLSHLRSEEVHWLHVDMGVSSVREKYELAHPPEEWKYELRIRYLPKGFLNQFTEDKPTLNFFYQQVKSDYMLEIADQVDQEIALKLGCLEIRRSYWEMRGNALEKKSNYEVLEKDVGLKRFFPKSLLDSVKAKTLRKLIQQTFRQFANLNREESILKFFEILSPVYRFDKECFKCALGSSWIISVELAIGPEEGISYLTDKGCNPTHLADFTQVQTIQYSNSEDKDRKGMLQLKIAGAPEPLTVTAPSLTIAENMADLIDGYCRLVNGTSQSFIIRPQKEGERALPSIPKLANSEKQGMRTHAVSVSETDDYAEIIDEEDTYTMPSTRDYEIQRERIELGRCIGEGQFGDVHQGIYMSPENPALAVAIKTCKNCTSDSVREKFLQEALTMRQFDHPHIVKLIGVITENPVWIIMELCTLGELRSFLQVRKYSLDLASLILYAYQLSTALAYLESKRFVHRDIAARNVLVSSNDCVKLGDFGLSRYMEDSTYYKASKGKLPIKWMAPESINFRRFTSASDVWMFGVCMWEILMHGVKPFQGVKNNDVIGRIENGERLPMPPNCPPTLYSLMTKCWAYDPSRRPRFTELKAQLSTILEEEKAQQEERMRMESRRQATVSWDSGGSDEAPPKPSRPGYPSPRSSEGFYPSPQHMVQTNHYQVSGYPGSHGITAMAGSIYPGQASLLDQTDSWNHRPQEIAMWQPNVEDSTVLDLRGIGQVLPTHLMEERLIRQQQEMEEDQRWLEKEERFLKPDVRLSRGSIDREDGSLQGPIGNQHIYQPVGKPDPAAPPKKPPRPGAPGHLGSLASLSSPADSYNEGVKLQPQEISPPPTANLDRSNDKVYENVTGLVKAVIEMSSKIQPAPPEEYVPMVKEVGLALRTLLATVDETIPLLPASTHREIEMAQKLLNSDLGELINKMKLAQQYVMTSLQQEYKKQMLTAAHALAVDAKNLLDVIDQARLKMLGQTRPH
T3 sequence (P35968 786-1356 limits assumed): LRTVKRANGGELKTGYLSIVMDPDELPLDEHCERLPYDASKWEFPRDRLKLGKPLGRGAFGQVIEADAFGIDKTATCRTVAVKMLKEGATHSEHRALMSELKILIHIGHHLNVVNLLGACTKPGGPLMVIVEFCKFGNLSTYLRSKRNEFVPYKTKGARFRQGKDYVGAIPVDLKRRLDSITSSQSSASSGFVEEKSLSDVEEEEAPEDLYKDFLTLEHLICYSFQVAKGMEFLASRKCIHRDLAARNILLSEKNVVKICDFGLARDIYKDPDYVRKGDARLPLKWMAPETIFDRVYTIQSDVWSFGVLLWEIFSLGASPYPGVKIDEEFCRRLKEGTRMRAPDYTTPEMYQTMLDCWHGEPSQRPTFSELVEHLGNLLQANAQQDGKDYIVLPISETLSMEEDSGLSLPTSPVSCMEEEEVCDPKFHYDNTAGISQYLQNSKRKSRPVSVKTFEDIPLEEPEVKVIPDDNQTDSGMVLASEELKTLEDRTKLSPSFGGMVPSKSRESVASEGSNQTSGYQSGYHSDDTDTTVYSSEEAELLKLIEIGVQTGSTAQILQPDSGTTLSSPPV

inhibition at 10 µM [1]	inhibition at 10 µM [2, 4]	inhibition at 10 µM [3]	Aurora2 % inhib at 10 μM [1]	FAK % inhib at 10 μM ([2]; 10 μM (values without asterisk), 10 µM)	inhibition at 30 µM ([2]; 30 μM (values marked *), read-out: FAK % inhib at 30* μM)	SMILES
100%	51%	96%	–	–	–	Cc1ccccc1S(=O)(=O)Nc1ccc2[nH]nc(-c3ccccc3)c2c1 [Example 132, 2-Methyl-N-(3-phenyl-1H-indazol-5-yl)-benzenesulfonamide]
–	–	34%	30%	0%	–	CC(=O)Nc1ccc(S(=O)(=O)Nc2ccc3[nH]nc(-c4ccccc4)c3c2)cc1 [Example 95, N-[4-(3-Phenyl-1H-indazol-5-ylsulfamoyl)phenyl]acetamide]
100%	94%	0%	–	–	–	CN(C)c1ccc(-c2n[nH]c3ccc(NS(=O)(=O)c4ccccc4S(C)(=O)=O)cc23)cc1 [Example 63, N-[3-(4-Dimethylaminophenyl)-1H-indazol-5-yl]-2-methylsulfonylbenzenesulfonamide]
89%	94%	83%	–	–	–	CS(=O)(=O)c1ccc(F)cc1S(=O)(=O)Nc1ccc2[nH]nc(-c3ccccc3)c2c1 [Example 93, 5-Fluoro-2-methylsulfonyl-N-(3-phenyl-1H-indazol-5-yl)-benzenesulfonamide]
98%	99%	71%	–	–	–	CS(=O)(=O)c1ccccc1S(=O)(=O)Nc1ccc2[nH]nc(-c3ccc(N)cc3)c2c1 [Example 70, N-[3-(4-Aminophenyl)-1H-indazol-5-yl]-2-methylsulfonylbenzenesulfonamide]
55%	21%	25%	–	–	–	CS(=O)(=O)c1ccccc1S(=O)(=O)Nc1ccc2[nH]nc(Sc3ccccc3)c2c1 [Example 88, 2-Methylsulfonyl-N-(3-phenylsulfanyl-1H-indazol-5-yl)-benzenesulfonamide]
100%	86%	73%	–	–	–	CS(=O)(=O)c1ccccc1S(=O)(=O)Nc1ccc2[nH]nc(-c3cc4ccccc4s3)c2c1 [Example 65, N-(3-Benzo[b]thiophen-2-yl-1H-indazol-5-yl)-2-methylsulfonylbenzenesulfonamide]
76%	–	0%	–	–	83%	CS(=O)(=O)c1ccccc1S(=O)(=O)Nc1ccc2[nH]ncc2c1 [Example 13, 2-Methylsulfonyl-N-(1H-indazol-5-yl)benzenesulfonamide]
100%	99%	74%	–	–	–	CS(=O)(=O)c1ccccc1S(=O)(=O)Nc1ccc2[nH]nc(-c3cccc(N)c3)c2c1 [Example 62, N-[3-(3-Aminophenyl)-1H-indazol-5-yl]-2-methylsulfonylbenzenesulfonamide]
95%	82%	85%	–	–	–	O=S(=O)(Nc1ccc2[nH]nc(-c3ccccc3)c2c1)c1cccc(F)c1 [Example 6, 3-Fluoro-N-(3-phenyl-1H-indazol-5-yl)benzenesulfonamide]
94%	98%	51%	–	–	–	COC(=O)c1cccc(-c2n[nH]c3ccc(NS(=O)(=O)c4ccccc4S(C)(=O)=O)cc23)c1 [Example 55, Methyl 3-[5-(2-methylsulfonylbenzenesulfonamino)-1H-indazol-3-yl]benzoate]
44%	94%	74%	–	–	–	O=S(=O)(Nc1ccc2[nH]nc(-c3ccccc3)c2c1)C1CCNCC1 [Example 100, N-(3-Phenyl-1H-indazol-5-yl)-piperidine-4-sulfonamide]
99%	47%	92%	–	–	–	Cc1cccc(S(=O)(=O)Nc2ccc3[nH]nc(-c4ccccc4)c3c2)c1 [Example 138, 3-Methyl-N-(3-phenyl-1H-indazol-5-yl)-benzenesulfonamide]
